Activity calls are given as the source filed them.
Assays:
[1] = ADAM10 inhibitors, peptide cleavage, dose response, biochemical, QFRET (AID 743254);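 further: ADAM10 enzyme with the DM2 quenched FRET peptide as substrate; EDANS fluorescence gain as the protease cuts the substrate; inhibitor potency against ADAM10 proteolytic activity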
[2] = biological target: Disintegrin and metalloproteinase domain-containing protein 17 (Homo sapiens, UniProt P78536); experiment: ADAM17 protease inhibitors, dose response, counter-screen for ADAM10 exosite inhibitor project, biochemical, quenched FRET substrate (AID 743253)
H4 = experiment: Luminescence Cell-Based Dose Response HTS to Identify Activators of 5'UTR Stem-Loop Driven Prion Protein mRNA Translation in H4 Neuroglioblastoma Cells. [Related pubchem assays: 1829 (Project Summary), 1814 (Primary HTS)]; format: functional; conditions: Homo sapiens
[3] = Luminescence Cell-Based Dose Confirmation to Identify Activators of 5'UTR Stem-Loop Driven Alpha-Synuclein mRNA Translation in H4 Neuroglioblastoma Cells. [Related pubchem assays: 1829 (Project Summary), 1814 (Primary HTS)]; format: functional
[4] = Luminescence Cell-Based Dose Response HTS to Identify Activators of Luciferase Translation or Activity in H4 […] Cells. [Related pubchem assays: 1829 (Project Summary), 1814 (Primary HTS)]; format: functional
HeLa = experiment: HeLa cell cytotoxicity, dose response, cytotoxicity control for MITF activator project, CellTiter-Glo luminescence, cherry-pick samples (AID 540259); format: functional, cell-based; conditions: Homo sapiens
[5] = Luminescence Cell-Based Dose Response to Identify Activators of 5'UTR Stem-Loop Driven Prion Protein mRNA Translation in H4-C Neuroglioblastoma Cells. [Related pubchem assays: 1829 (Project Summary), 1814 (Primary HTS)]; format: functional
[6] = Luminescence Cell-Based Dose Response to Identify Activators of Luciferase Translation or Activity in H4-C Neuroglioblastoma Cells. [Related pubchem assays: 1829 (Project Summary), 1814 (Primary HTS)]; format: functional
[7] = biological target: T1, Oxysterols receptor LXR-beta (Homo sapiens, UniProt P55055); experiment: LXR agonists, Gal4 luciferase reporter, dose response, counter-screen for ssDAF-12 agonist project, cell-based, luminescence, HEK293, S. stercoralis campaign (AID 720737); format: functional; conditions: read-out: IC50 (the source's name)
T1 sequence (P55055 whole entry): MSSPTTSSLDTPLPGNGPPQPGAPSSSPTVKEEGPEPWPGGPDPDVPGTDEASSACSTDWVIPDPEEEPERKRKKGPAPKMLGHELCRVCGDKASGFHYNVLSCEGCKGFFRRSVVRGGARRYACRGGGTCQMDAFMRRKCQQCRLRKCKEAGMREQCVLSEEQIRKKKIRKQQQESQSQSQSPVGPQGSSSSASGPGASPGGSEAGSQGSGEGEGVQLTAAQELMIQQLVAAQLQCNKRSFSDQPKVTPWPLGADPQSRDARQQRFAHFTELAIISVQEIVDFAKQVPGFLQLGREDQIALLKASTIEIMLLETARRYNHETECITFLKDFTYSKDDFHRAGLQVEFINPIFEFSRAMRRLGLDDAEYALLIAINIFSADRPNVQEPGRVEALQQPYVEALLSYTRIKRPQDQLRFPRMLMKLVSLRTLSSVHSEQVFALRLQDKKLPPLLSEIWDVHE

[8] = Luminescence-based cell-based high throughput dose response assay to identify activators of the DAF-12 from the parasite S. stercoralis (ssDAF-12).; format: functional
[9] = Vero cell cytotoxicity, dose response, cytotoxicity control for Vif-APOBEC3G degradation inhibitor project, Vero cells (AID 1117358); format: functional; conditions: Human immunodeficiency virus 1, Vero
[10] = cytotoxicity toward NIH3T3 fibroblasts, dose response, counter-screen, cell-based, ATP luminescence, mouse fibroblasts (AID 2010); format: functional;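 further: cells exposed to compound for about 90 hours before reading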
[11] = inhibitors of intracellular T. cruzi replication, confirmation, NIH3T3 host cells, beta-gal luminescence (AID 2044); format: functional, cell-based;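 further: intracellular parasites grown in NIH/3T3 mouse fibroblasts as host cells; luminescent beta-galactosidase reporter signal from transgenic T. cruzi replicating inside host cells; inhibitors lower the luminescence signal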
[12] = LGR2 antagonists, dose response, cell-based, HEK293, CRE-luciferase reporter, cherry pick, set 2 (AID 743343); format: functional;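 further: transfected cells were stimulated with diluted bursicon conditioned medium after compound addition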
[13] = MC4R antagonists, dose response, counter-screen for LGR2 antagonist project, cell-based, plate reader, cherry pick (AID 743444); format: functional;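 further: transfected HEK 293 cells stimulated with alpha-MSH peptide; potency of inhibitors of the alpha-MSH evoked signal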
[14] = off-target signal loss in HeLa-CEM21 co-culture – HeLa F-luc CTL cells, cherry-picked, counter-screen for HIV-1 Env fusion inhibitor project, dose response (AID 652040); format: functional, cell-based;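 further: potency for signal decrease marking cytotoxic or nonspecific inhibition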
[15] = inhibitors of clade B AD8 Env fusion, dose response, cell-based, cherry-pick (AID 652062); format: functional;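 further: luciferase signal from cell-cell fusion driven by HIV-1 clade B AD8 Env; potency is for inhibitors of fusion seen as a drop in luminescence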
[16] = inhibitors of HIV Env-driven cell fusion, dose response, cherry-pick (AID 652057); format: functional, cell-based
Caspase-6 = biological target: T2, Caspase-6 (Homo sapiens, UniProt P55212); experiment: human caspase-6 inhibitors, dose response, biochemical, VEID-R110 fluorescence, cherry-pick (AID 720632)
T2 sequence (P55212 whole entry): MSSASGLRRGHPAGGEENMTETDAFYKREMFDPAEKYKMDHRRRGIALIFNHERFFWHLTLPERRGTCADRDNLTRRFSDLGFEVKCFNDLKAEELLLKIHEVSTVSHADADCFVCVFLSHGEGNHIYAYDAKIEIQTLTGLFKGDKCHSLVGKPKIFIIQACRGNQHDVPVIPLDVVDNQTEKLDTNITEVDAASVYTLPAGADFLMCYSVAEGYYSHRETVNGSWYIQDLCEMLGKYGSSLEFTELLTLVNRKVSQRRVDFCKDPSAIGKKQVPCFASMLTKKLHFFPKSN

[17] = biological target: T3, Sentrin-specific protease 8 (Homo sapiens, UniProt Q96LD8); format: functional
T3 sequence (Q96LD8 whole entry): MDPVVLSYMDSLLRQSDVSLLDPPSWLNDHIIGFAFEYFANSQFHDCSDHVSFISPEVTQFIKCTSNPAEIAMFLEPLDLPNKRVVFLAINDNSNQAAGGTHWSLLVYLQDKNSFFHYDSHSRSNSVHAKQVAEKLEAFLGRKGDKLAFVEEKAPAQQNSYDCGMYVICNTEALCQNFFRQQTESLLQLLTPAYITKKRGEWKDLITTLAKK

[18] = biological target: T3, Sentrin-specific protease 8; format: functional; remark: listed apart in the source
[19] = biological target: T4, Luciferin 4-monooxygenase (Photinus pyralis, UniProt P08659); experiment: Counter Screen for Luciferase-based Assay Positives. [Related pubchem assays: 620, 618, 411 ]
HT-1080 = experiment: cytotoxicity in HT1080 fibrosarcoma cells, cell-based, fluorescence readout (AID 620); format: functional; conditions: Homo sapiens
Prothrombin = Prothrombin (Homo sapiens, UniProt P00734); experiment: Thrombin 1536 HTS Dose Response Confirmation. [Related pubchem assays: 1046 (Thrombin 1536 HTS; hits were confirmed in this assay)]; format: functional
[20] = biological target: T4, Luciferin 4-monooxygenase; experiment: firefly luciferase enzyme inhibitors, dose response, biochemical, luminescence (AID 1891)
[21] = Luminescence Cell-Based Dose Confirmation HTS to Identify Inhibitors of Platelet Dense Granule Release. [Related pubchem assays: 1663 (Primary HTS), 1678 (Summary of Project)]; format: functional
[22] = Luminescence Cell-Based Dose Confirmation HTS to Identify Activators of 5'UTR Stem-Loop Driven Alpha-Synuclein mRNA Translation in H4 Neuroglioblastoma Cells. [Related pubchem assays: 1829 (Project Summary), 1814 (Primary HTS)]; format: functional
[23] = HEp-2 cell cytotoxicity, dose response, cytotoxicity control for RSV inhibitor project, HTS (AID 2410); format: functional; conditions: human respiratory syncytial virus
[24] = HEK293T cytotoxicity, dose response, cytotoxicity control for miR-122 modulator project, cell-based, inhibitor set, cherry-pick, set 2 (AID 720697); format: functional

Disintegrin and metalloproteinase domain-containing protein 17, sequence (P78536 whole entry, the tested form may be a part): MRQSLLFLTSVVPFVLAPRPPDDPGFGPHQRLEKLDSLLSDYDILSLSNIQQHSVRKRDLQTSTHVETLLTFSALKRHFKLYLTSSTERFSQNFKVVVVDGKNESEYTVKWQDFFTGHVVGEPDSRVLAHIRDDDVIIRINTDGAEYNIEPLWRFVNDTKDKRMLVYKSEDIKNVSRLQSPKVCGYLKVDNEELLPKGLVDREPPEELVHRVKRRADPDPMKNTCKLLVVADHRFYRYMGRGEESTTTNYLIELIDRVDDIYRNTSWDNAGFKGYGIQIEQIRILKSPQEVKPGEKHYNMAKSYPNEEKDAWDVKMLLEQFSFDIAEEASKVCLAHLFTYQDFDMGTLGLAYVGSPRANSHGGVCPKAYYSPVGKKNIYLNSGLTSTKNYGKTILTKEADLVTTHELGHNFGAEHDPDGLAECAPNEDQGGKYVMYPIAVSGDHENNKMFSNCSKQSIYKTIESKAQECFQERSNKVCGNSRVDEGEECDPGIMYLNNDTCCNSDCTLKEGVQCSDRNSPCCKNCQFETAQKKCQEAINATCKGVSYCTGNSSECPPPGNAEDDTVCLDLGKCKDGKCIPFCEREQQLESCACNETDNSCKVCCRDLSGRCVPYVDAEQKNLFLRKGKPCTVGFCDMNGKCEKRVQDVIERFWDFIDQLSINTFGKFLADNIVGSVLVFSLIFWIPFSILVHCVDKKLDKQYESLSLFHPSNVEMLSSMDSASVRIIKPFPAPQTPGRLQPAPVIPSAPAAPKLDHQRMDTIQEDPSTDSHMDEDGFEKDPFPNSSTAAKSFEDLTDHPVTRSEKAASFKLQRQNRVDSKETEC
T4 sequence (P08659 whole entry): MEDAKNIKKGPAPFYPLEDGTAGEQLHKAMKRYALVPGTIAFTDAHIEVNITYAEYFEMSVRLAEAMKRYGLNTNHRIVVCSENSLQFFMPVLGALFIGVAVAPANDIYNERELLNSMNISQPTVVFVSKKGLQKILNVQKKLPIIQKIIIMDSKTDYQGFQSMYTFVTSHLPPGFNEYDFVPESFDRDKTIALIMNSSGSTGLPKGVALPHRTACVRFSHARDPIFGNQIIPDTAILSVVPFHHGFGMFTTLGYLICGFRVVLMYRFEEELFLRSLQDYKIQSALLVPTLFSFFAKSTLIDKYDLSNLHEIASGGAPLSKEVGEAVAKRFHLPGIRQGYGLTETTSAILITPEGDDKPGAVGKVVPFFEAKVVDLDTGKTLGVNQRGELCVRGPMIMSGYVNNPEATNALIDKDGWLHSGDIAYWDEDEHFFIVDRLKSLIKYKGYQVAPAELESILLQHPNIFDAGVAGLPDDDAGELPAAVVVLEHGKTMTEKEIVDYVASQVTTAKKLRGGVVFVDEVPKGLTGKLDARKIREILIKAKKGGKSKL

Question: Which results are given for Cc1ccc(Nc2nc(N)nc(CSc3nc4ccccc4s3)n2)cc1?
Answer: IC50 [1]: > 7.72 µM (active); IC50 [2]: > 69.5 µM (inactive)

Question: With Clc1ccc(-c2cn3c(n2)CCC3)cc1 as the compound, how does the EC50 (H4) read?
Answer: Its EC50 is > 120 µM (not active).

Question: And the EC50 [3]?
Answer: Its EC50 is 0.319 µM (active).

Question: And the EC50 [4]?
Answer: Its EC50 is < 0.1 µM (active).

Question: What about the AC50 (HeLa) of the same compound?
Answer: The AC50 was 173 µM (active).

Question: What about the EC50 [5] of the same compound?
Answer: The EC50 was 0.397 µM (active).

Question: And the EC50 [6]?
Answer: The EC50 was 0.299 µM (active).

Question: Which results are given for CC1CCC(NC(=O)c2ccc(S(C)(=O)=O)cc2)CC1 (stereo unspecified)?
Answer: EC50 [7]: > 67.5 µM (inactive); IC50 [8]: > 67.5 µM (inactive)

Question: For COc1ccc(CCNC(=O)CSc2nc(-c3ccco3)cc(C(F)(F)F)n2)cc1, which CC50 [9] is on record?
Answer: Its CC50 is > 40 µM (active).

Question: With Cc1ccc(C(=O)Nc2ccccc2-c2ccccc2)cc1S(=O)(=O)Nc1cccc(C)c1C as the compound, how does the EC50 [10] read?
Answer: The EC50 was > 60 µM (not active).

Question: What about the IC50 [1] of the same compound?
Answer: Its IC50 is > 69.5 µM (inactive).

Question: And the IC50 [2]?
Answer: The IC50 was > 69.5 µM (inactive).

Question: What about the EC50 [11] of the same compound?
Answer: The EC50 was 1.57 µM (active).

Question: With Cc1cc(C(=O)CN2C(=O)c3ccccc3S2(=O)=O)c(C)n1C(C)C as the compound, how does the AC50 [12] read?
Answer: Its AC50 is 2.48 µM (active).

Question: And the AC50 [13]?
Answer: Its AC50 is 2.08 µM (active).

Question: What about the AC50 [14] of the same compound?
Answer: Its AC50 is 3.75 µM (active).

Question: What about the AC50 [15] of the same compound?
Answer: The AC50 was 7.58 µM (active).

Question: What about the AC50 [16] of the same compound?
Answer: Its AC50 is 3.93 µM (active).

Question: Which AC50 (Caspase-6) does the source give for CC1Cc2ccccc2N1C(=O)COC(=O)c1ccc([N+](=O)[O-])o1 (stereo unspecified) here?
Answer: Its AC50 is 13 µM (active).

Question: And the IC50 [17]?
Answer: Its IC50 is 8.67 µM (active).

Question: What about the IC50 [18] of the same compound?
Answer: The IC50 was 3.78 µM (active).

Question: For Oc1cccc(-c2nc3ccccc3s2)c1, which EC50 [19] is on record?
Answer: Its EC50 is 12.4 µM (active).

Question: And the EC50 (HT-1080)?
Answer: Its EC50 is > 50 µM (not active).

Question: And the IC50 (Prothrombin)?
Answer: The IC50 was > 50 µM (not active).

Question: And the EC50 [20]?
Answer: Its EC50 is 1.83 µM (active).

Question: And the EC50 [21]?
Answer: Its EC50 is 22.2 µM (active).

Question: What about the IC50 [8] of the same compound?
Answer: Its IC50 is > 67.6 µM (inactive).

Question: Which EC50 [7] does the source give for Cc1ccc(NC(=O)C2CC(=O)Nc3nncn32)cc1 (stereo unspecified) here?
Answer: The EC50 was > 67.6 µM (inactive).

Question: And the IC50 [8]?
Answer: The IC50 was > 67.6 µM (inactive).

Question: With Fc1cccc(Cl)c1Cc1noc(/C=C/c2ccccc2)n1 as the compound, how does the EC50 (H4) read?
Answer: The EC50 was 4.36 µM (active).

Question: And the EC50 [22]?
Answer: The EC50 was < 0.1 µM (active).

Question: What about the EC50 [3] of the same compound?
Answer: Its EC50 is > 12 µM (not active).

Question: What about the EC50 [4] of the same compound?
Answer: The EC50 was 70.3 µM (active).

Question: And the EC50 [5]?
Answer: Its EC50 is > 12 µM (not active).

Question: And the EC50 [6]?
Answer: The EC50 was > 12 µM (not active).

Question: For O=C1Cc2ccccc2C(=O)N1c1ccc(F)cc1Cl, which AC50 (Caspase-6) is on record?
Answer: The AC50 was 20.4 µM (active).

Question: What about the IC50 [17] of the same compound?
Answer: The IC50 was 4.41 µM (active).

Question: And the IC50 [18]?
Answer: The IC50 was > 100 µM (inactive).

Question: With CN1CCN(c2ncnc3c2cnn3-c2ccc(Cl)cc2)CC1 as the compound, how does the EC50 [19] read?
Answer: The EC50 was 0.55 µM (active).

Question: What about the EC50 (HT-1080) of the same compound?
Answer: The EC50 was > 50 µM (not active).

Question: Which results are given for Nc1nonc1OCCCCOc1nonc1N?
Answer: EC50 [7]: > 67.6 µM (inactive); IC50 [8]: > 67.6 µM (inactive)

Question: With COc1ccc(S(=O)(=O)N(C)C[C@@H]2OCCCC[C@H](C)Oc3ccc(NC(=O)Nc4ccc(C(F)(F)F)cc4)cc3C(=O)N([C@H](C)CO)C[C@H]2C)cc1 as the compound, how does the IC50 [1] read?
Answer: Its IC50 is > 69.5 µM (inactive).

Question: And the IC50 [2]?
Answer: The IC50 was > 69.5 µM (inactive).

Question: Which IC50 (cells) does the source give for O=C(Nc1ccc(C(F)(F)F)cc1[N+](=O)[O-])O[C@H]1[C@H](Cc2ccccc2)NS(=O)(=O)[C@H]2C[C@@H]3C=C[C@]12O3 here?
Answer: The IC50 was 24.6 µM (active).

Question: What about the CC50 [23] of the same compound?
Answer: Its CC50 is 23 µM (active).

Question: Which AC50 [24] does the source give for CCCNC(=O)Nc1ccc2c(c1)C(=O)N(C)[C@@H]1CC[C@H](CC(=O)O)O[C@H]1CO2 here?
Answer: The AC50 was 1.82 µM (active).

Question: For O=C(/C=C\Nc1ccccn1)c1ccc(Cl)cc1, which EC50 [19] is on record?
Answer: The EC50 was 2.45 µM (active).

Question: And the EC50 (HT-1080)?
Answer: The EC50 was > 50 µM (not active).

— ChEMBL document CHEMBL1201862, “PubChem BioAssay data set” (2004)
